Test: xn = mol fraction of the nth substance listed

CC(=O)CC(C)C + CS(C)=O
303.15 K, 101 kPa
Conditions | viscosity [mPa·s]
x2 = 0.1332 | 0.6376
x2 = 0.257 | 0.7283
x2 = 0.3722 | 0.8149
x2 = 0.4798 | 0.9229
x2 = 0.5804 | 1.042
x2 = 0.6748 | 1.16
x2 = 0.7635 | 1.306

O=C1CCCCC1 + CS(C)=O
303.15 K, 101 kPa
Conditions | viscosity [mPa·s]
x2 = 0.099 | 1.721
x2 = 0.1791 | 1.669
x2 = 0.2687 | 1.649
x2 = 0.3683 | 1.648
x2 = 0.4653 | 1.657
x2 = 0.5628 | 1.675
x2 = 0.6679 | 1.698
x2 = 0.7877 | 1.725
x2 = 0.8903 | 1.755

CC(=O)CC(C)C + Cc1ccc(C)cc1
298.15 K, 101 kPa
Conditions | viscosity [mPa·s]
x1 = 0.1409 | 0.59
x1 = 0.226 | 0.583
x1 = 0.3369 | 0.576
x1 = 0.4463 | 0.569
x1 = 0.5673 | 0.563
x1 = 0.6366 | 0.559
x1 = 0.8014 | 0.551
x1 = 0.9061 | 0.546

O=C1CCCCC1 + Cc1ccc(C)cc1
viscosity [mPa·s], 101.33 kPa
Conditions | x1 = 0.1013 | x1 = 0.2048 | x1 = 0.3016 | x1 = 0.4023 | x1 = 0.5186 | x1 = 0.6081 | x1 = 0.7034 | x1 = 0.7967 | x1 = 0.9005
298.15 K | 0.655 | 0.702 | 0.762 | 0.834 | 0.938 | 1.04 | 1.194 | 1.35 | 1.617
303.15 K | 0.612 | 0.657 | 0.711 | 0.777 | 0.871 | 0.965 | 1.088 | 1.237 | 1.481
308.15 K | 0.574 | 0.618 | 0.667 | 0.728 | 0.819 | 0.897 | 1.01 | 1.144 | 1.354

CC(=O)CC(C)C + Cc1ccccc1
298.15 K, 101 kPa
Conditions | viscosity [mPa·s]
x1 = 0.1094 | 0.545
x1 = 0.207 | 0.541
x1 = 0.3183 | 0.539
x1 = 0.4196 | 0.538
x1 = 0.5357 | 0.537
x1 = 0.6441 | 0.544
x1 = 0.7653 | 0.539
x1 = 0.8774 | 0.541

CC(C)CC(C)(C)C + Cc1ccccc1
101 kPa
Conditions | viscosity [mPa·s]
298.15 K, x1 = 0.1138 | 0.519
298.15 K, x1 = 0.2032 | 0.498
298.15 K, x1 = 0.2796 | 0.485
298.15 K, x1 = 0.3319 | 0.477
298.15 K, x1 = 0.4044 | 0.47
298.15 K, x1 = 0.4365 | 0.467
298.15 K, x1 = 0.4983 | 0.464
298.15 K, x1 = 0.618 | 0.459
298.15 K, x1 = 0.6934 | 0.458
298.15 K, x1 = 0.7315 | 0.461
298.15 K, x1 = 0.8036 | 0.463
298.15 K, x1 = 0.8966 | 0.467
298.15 K, x1 = 0.9292 | 0.47
298.15 K, x1 = 0.9743 | 0.474
308.15 K, x1 = 0.0644 | 0.4877
308.15 K, x1 = 0.1217 | 0.4728
308.15 K, x1 = 0.1933 | 0.4593
308.15 K, x1 = 0.2715 | 0.4474
308.15 K, x1 = 0.3689 | 0.4362
308.15 K, x1 = 0.4483 | 0.4305
308.15 K, x1 = 0.5805 | 0.4258
308.15 K, x1 = 0.6997 | 0.425
308.15 K, x1 = 0.8297 | 0.4265

CCC(C)N (configuration not stated) + Cc1ccccc1
303.15 K, 101 kPa
Conditions | viscosity [mPa·s]
x2 = 0.1499 | 0.4062
x2 = 0.216 | 0.4085
x2 = 0.2959 | 0.4124
x2 = 0.3889 | 0.419
x2 = 0.5124 | 0.4325
x2 = 0.613 | 0.4492
x2 = 0.7105 | 0.4679
x2 = 0.8708 | 0.4998

CCCCCCO + Cc1ccccc1
viscosity [mPa·s], 101 kPa
Conditions | x2 = 0.1151 | x2 = 0.2265 | x2 = 0.3342 | x2 = 0.4384 | x2 = 0.5394 | x2 = 0.6372 | x2 = 0.7321 | x2 = 0.8241 | x2 = 0.9133
303.15 K | 2.859 | 2.167 | 1.692 | 1.351 | 1.099 | 0.882 | 0.7364 | 0.6235 | 0.5592
313.15 K | 2.206 | 1.701 | 1.341 | 1.097 | 0.9164 | 0.7593 | 0.6439 | 0.5569 | 0.5069
323.15 K | 1.661 | 1.321 | 1.057 | 0.8845 | 0.7532 | 0.6516 | 0.5418 | 0.4674 | 0.4336

CCOCC + Cc1ccccc1
viscosity [mPa·s], 101 kPa
Conditions | 293.15 K | 298.15 K | 303.15 K | 308.15 K
x2 = 0.21 | 0.3 | 0.29 | 0.281 | 0.272
x2 = 0.45 | 0.379 | 0.36 | 0.345 | 0.331
x2 = 0.71 | 0.468 | 0.445 | 0.419 | 0.404

O=C1CCCCC1 + Cc1ccccc1
viscosity [mPa·s]
Conditions | 298.15 K | 303.15 K | 308.15 K
101 kPa, x1 = 0.1059 | 0.615 | – | –
101 kPa, x1 = 0.2177 | 0.682 | – | –
101 kPa, x1 = 0.3103 | 0.74 | – | –
101 kPa, x1 = 0.4166 | 0.829 | – | –
101 kPa, x1 = 0.5047 | 0.884 | – | –
101 kPa, x1 = 0.6049 | 0.971 | – | –
101 kPa, x1 = 0.7171 | 1.218 | – | –
101 kPa, x1 = 0.7943 | 1.333 | – | –
101 kPa, x1 = 0.9041 | 1.574 | – | –
101 kPa, x2 = 0.1021 | – | 1.396 | –
101 kPa, x2 = 0.202 | – | 1.218 | –
101 kPa, x2 = 0.3024 | – | 1.068 | –
101 kPa, x2 = 0.4051 | – | 0.9428 | –
101 kPa, x2 = 0.4964 | – | 0.8546 | –
101 kPa, x2 = 0.6017 | – | 0.753 | –
101 kPa, x2 = 0.6963 | – | 0.6911 | –
101 kPa, x2 = 0.8022 | – | 0.6292 | –
101.33 kPa, x1 = 0.1032 | 0.61 | 0.573 | 0.543
101.33 kPa, x1 = 0.1997 | 0.668 | 0.625 | 0.59
101.33 kPa, x1 = 0.3024 | 0.738 | 0.689 | 0.648
101.33 kPa, x1 = 0.4055 | 0.824 | 0.767 | 0.721
101.33 kPa, x1 = 0.504 | 0.922 | 0.854 | 0.799
101.33 kPa, x1 = 0.602 | 1.043 | 0.972 | 0.903
101.33 kPa, x1 = 0.7012 | 1.194 | 1.103 | 1.02
101.33 kPa, x1 = 0.7999 | 1.391 | 1.273 | 1.183
101.33 kPa, x1 = 0.9027 | 1.654 | 1.505 | 1.382

CCCCCC(=O)O + ClC(Cl)(Cl)Cl
298.15 K, 101 kPa
Conditions | viscosity [mPa·s]
x1 = 0.07 | 0.966
x1 = 0.13 | 1.033
x1 = 0.19 | 1.108
x1 = 0.25 | 1.188
x1 = 0.47 | 1.548
x1 = 0.57 | 1.743
x1 = 0.67 | 1.927
x1 = 0.84 | 2.343

CC(=O)CC(C)C + ClC(Cl)Cl
298.15 K, 101 kPa
Conditions | viscosity [mPa·s]
x2 = 0.0813 | 0.5611
x2 = 0.1599 | 0.5799
x2 = 0.2352 | 0.5986
x2 = 0.3916 | 0.6341
x2 = 0.497 | 0.6494
x2 = 0.6114 | 0.6521
x2 = 0.7252 | 0.6349
x2 = 0.864 | 0.5903
x2 = 0.9291 | 0.5613

CCOCC + ClC(Cl)Cl
101.33 kPa
Conditions | viscosity [mPa·s]
293.15 K, x2 = 0.1704 | 0.295
293.15 K, x2 = 0.2909 | 0.354
293.15 K, x2 = 0.4425 | 0.416
293.15 K, x2 = 0.562 | 0.466
293.15 K, x2 = 0.6848 | 0.507
293.15 K, x2 = 0.8038 | 0.536
293.15 K, x2 = 0.8989 | 0.555
298.15 K, x1 = 0.274 | 0.472
298.15 K, x1 = 0.528 | 0.397
298.15 K, x1 = 0.672 | 0.34
298.15 K, x1 = 0.863 | 0.268
298.15 K, x2 = 0.1567 | 0.282
298.15 K, x2 = 0.3094 | 0.343
298.15 K, x2 = 0.4329 | 0.395
298.15 K, x2 = 0.5582 | 0.445
298.15 K, x2 = 0.6897 | 0.489
298.15 K, x2 = 0.8073 | 0.519
298.15 K, x2 = 0.8947 | 0.536

CCOCC + ClCCl
298.15 K, 101 kPa
Conditions | viscosity [mPa·s]
x1 = 0.113 | 0.4351
x1 = 0.2227 | 0.4106
x1 = 0.3294 | 0.3839
x1 = 0.4331 | 0.3585
x1 = 0.5341 | 0.3342
x1 = 0.6322 | 0.3106
x1 = 0.7278 | 0.289
x1 = 0.8209 | 0.2687
x1 = 0.9116 | 0.2496

— the CheMixHub viscosity set
